Measurements taken from ChEMBL document CHEMBL3301361, “Experimental in vitro DMPK and physicochemical data on a set of publicly disclosed compounds”.

Experiment: physchem
Settings: octan-1-ol/water, pH 7.4
For `O=C(Cc1cccc2ccccc12)Nc1ccccc1`, the logD was 3.9.
In the case of `CCNC1=Nc2ccccc2C(c2ccccc2)=NC1c1cccs1` (stereo not drawn), the logD is reported as 3.98.
With `NC(=O)C[S+]([O-])C(c1ccccc1)c1ccccc1` (stereo not drawn) [MODAFINIL] the logD was 1.12.
With `CCCC(C)(COC(N)=O)COC(=O)NC(C)C` (stereo not drawn) [CARISOPRODOL] the logD was 2.01.
Compound `CCN(C)C(=O)c1ccc([C@H](c2cccc(NC(=O)C3CCC3)c2)N2CCN(Cc3cccnc3)CC2)cc1` has a logD of 3.27.
Work on `NC(=O)c1cc(F)cc(O[C@H]2C[C@H]3CC[C@@H](C2)N3Cc2ccccc2)c1` yielded a logD of 2.14.
Compound `Clc1ccc([C@H]2CC=CCNC2)cc1Cl` has a logD of 1.95.
Compound `NC(=O)c1cc([N+](=O)[O-])cc([N+](=O)[O-])c1` [NITROMIDE] has a logD of 0.81.
With `Nc1ccccc1[N+](=O)[O-]` [2-NITROANILINE] the logD was -0.96.
For `CCCCCCN1CC[C@]2(C)c3cc(O)ccc3CC1[C@@H]2C`, the logD was 2.5.
In the case of `CN(C)C(=O)N[C@H]1CC[C@@H](CCN2[C@@H]3CC[C@H]2C[C@@H](Oc2cccc(C(N)=O)c2)C3)CC1`, the logD is reported as 0.22.
Compound `c1ccc(C2CCNCC2)cc1` has a logD of 0.54.
In the case of `N#Cc1cccc(-c2ccc(C3(CNC(=O)Nc4cc(Cl)cc(Cl)c4)CCN(CC4CC4)CC3)cc2)c1`, the logD is reported as 3.37.
For `NC(=O)c1cccc(S[C@H]2C[C@H]3CC[C@@H](C2)N3Cc2ccccc2)c1`, the logD was 2.22.
For `CC(N)Cc1c[nH]c2ccc(OCc3cccs3)cc12` (stereo not drawn) [BW-723C86], the logD was 0.48.

Same assay, conditions: octan-1-ol/water, pH 7.4, LogD7.4
Work on `CCNC(=O)OC[C@@H](C)N(c1cc(Cl)ccc1CO)S(=O)(=O)c1ccc(Cl)cc1` yielded a logD of 3.4.
With `O=C1C(=O)c2cc([N+](=O)[O-])ccc2-c2ccccc21` the logD was 2.42.
Work on `Cc1cc(NC(=O)c2ccc(Cl)cc2)n(-c2ccccc2)n1` yielded a logD of 3.25.
`COc1cc2ncc(C(N)=O)c(Nc3ccc(F)cc3)c2cc1OC` showed a logD of 2.82.
Work on `CC(=O)Nc1cccc(Nc2ncnc(N3CCC(OCc4ccc(OC(F)(F)F)cc4)CC3)n2)c1C` yielded a logD of 4.4.
For `OCC[C@@]1(c2ccc(Cl)c(Cl)c2)CCCNC1`, the logD was 0.62.
`O=C(N[C@@H](c1ccccc1)[C@@H]1CCCCN1)c1cccc(C(F)(F)F)c1Cl` showed a logD of 2.61.
`CN(C)CC(O)COc1ccc(Nc2cc(N(CCC#N)c3cc(Cl)ccc3Cl)ncn2)cc1` (stereo not drawn) showed a logD of 2.1.
With `O=C(NCC12CC3CC(CC(C3)C1)C2)c1cccc(Cl)c1Cl` the logD was 4.37.
For `O=C(NS(=O)(=O)c1ccc(NCCSc2ccccc2)c([N+](=O)[O-])c1)c1ccc(N2CCNCC2)cc1`, the logD was -0.04.
`Cn1c(-c2ccc(O)nc2)nc2ccccc21` showed a logD of 1.2.
`CNC(=O)C1(N2CCCCC2=O)CCN(CC[C@H](CN(C)C(=O)c2c(OC)c(C#N)cc3ccccc23)c2ccc(Cl)c(Cl)c2)CC1` gave a logD of 2.78.
In the case of `CC(Oc1c(Cl)cccc1Cl)C1=NCCN1` (stereo not drawn) [LOFEXIDINE], the logD is reported as 0.48.
In the case of `CC(C)C(NC(=O)Cn1c(-c2ccccc2)ccc(NC(=O)CN2CCOCC2)c1=O)C(=O)C(F)(F)F` (stereo not drawn), the logD is reported as 2.
`CCS(=O)(=O)c1ccc(Oc2c(C)n(CC(=O)O)c3ccc(C(F)(F)F)cc23)cc1` gave a logD of 0.29.
Work on `O=S(=O)(Nc1ncc(Cl)s1)c1cc(F)c(Oc2ccc(F)cc2-c2cn[nH]c2)cc1F` yielded a logD of 2.7.
`CC(C)Cn1c(=O)n(C)c(=O)c2c(C(=O)N3CC[C@@H](O)C3)c(Cc3cccc4ncccc34)sc21` gave a logD of 1.98.
`OCC[C@@]1(c2cc3ccccc3o2)CCCNC1` gave a logD of 0.06.
`CC(=O)Nc1ccccc1C` gave a logD of 1.
With `CNS(=O)(=O)CCc1ccc2[nH]cc(C3CCN(C)CC3)c2c1` the logD was 0.48.
With `O=C(O)CCCS(=O)(=O)c1cccc(C(=O)N2CCC(N3CCC(Oc4ccc(Cl)c(Cl)c4)CC3)CC2)c1` the logD was 0.66.
`COc1ccccc1C(=O)Nc1nc2ccccc2[nH]1` gave a logD of 2.9.
With `Clc1cccc(Cl)c1/C(=C/n1cncn1)OC1CCCCCC1` the logD was 4.1.
`CCS(=O)(=O)c1ccc(-c2cc(C(F)(F)F)ccc2O[C@H](C)C(=O)O)c(C)c1` showed a logD of -0.4.
Work on `CNc1cnc(-c2ccc(F)cc2)n(CC(=O)NC(C(=O)C(F)(F)F)C(C)C)c1=O` (stereo not drawn) yielded a logD of 1.86.
In the case of `CC(C)C(NC(=O)Cn1c(-c2ccccc2)ccc(NC(=O)NCc2ccncc2)c1=O)C(=O)C(F)(F)F` (stereo not drawn), the logD is reported as 2.16.
In the case of `COc1ccc2nc(N[C@H]3CCC[C@H](NCc4ccsc4)C3)cc(C)c2c1`, the logD is reported as 2.41.
With `O=S(=O)(Nc1cccnc1)c1ccccc1` the logD was 0.84.
For `CCCCN(CCCC)CCCOC(=O)c1ccc(N)cc1` [BUTACAINE], the logD was 1.93.
Work on `CC1(c2ccc(Cl)c(Cl)c2)CC(=O)NC(N)=N1` (stereo not drawn) yielded a logD of 1.59.
For `CC(C)[N+](C)(CCOC(=O)C1c2ccccc2Oc2ccccc21)C(C)C` [PROPANTHELINE], the logD was 0.2.
Work on `O=c1c(-c2ccc3c(c2)OCO3)coc2cc(O)cc(O)c12` yielded a logD of 3.5.
In the case of `Nc1nc2nc(SCc3ccccc3)nc(N)c2s1`, the logD is reported as 3.1.
For `Oc1cc(-c2ccccc2)nc2ccccc12`, the logD was 2.54.
With `Nc1nc2cc3c(cc2s1)CCN(Cc1cccc(F)c1)CC3` the logD was 3.3.
Work on `CN[C@@H](C)C(=O)N[C@H](C(=O)N[C@H]1CCCN(CCc2ccc(C)cc2)C1)C(C)(C)C` yielded a logD of 2.05.
For `C1CCc2c(c3c(N4CCCC4)nc(N4CCCC4)nc3n2CCN2CCOCC2)C1`, the logD was 3.6.
`Cc1cc2n[nH]c(=O)n2c2cc(-c3cccnc3)ccc12` showed a logD of 2.72.
`COc1nc(Cl)cnc1NS(=O)(=O)c1cccc2c(N(C)C)cccc12` gave a logD of 1.74.
Compound `O=S(=O)(Cc1ccccc1)NCC(c1ccccc1)N1CCCCCC1` (stereo not drawn) has a logD of 2.83.
`C#CCN(c1ccnc(Nc2ccc(OCC(O)CN(C)C)cc2)n1)c1cc(Cl)ccc1Cl` (stereo not drawn) gave a logD of 3.2.
In the case of `CC#Cc1ccnc(-c2cc(C3(C4CC4)N=C(C)C(N)=N3)ccc2O)c1` (stereo not drawn), the logD is reported as 3.6.
`CN(C)c1ccnc2sc3c(=O)n(-c4ccccc4)cnc3c12` showed a logD of 2.34.
`C[C@H](NC(=O)/C=C/c1ccccc1)c1cccc(N2CCOCC2)c1` showed a logD of 3.24.
`Cc1ccc(-n2[nH]c(=O)c3cccnc32)cc1` gave a logD of 2.1.
`COc1cc(N2CCN(C(C)=O)CC2)ccc1Nc1ncc(Cl)c(-c2cnc3cc(Cl)ccn23)n1` showed a logD of 4.2.
Work on `O=c1[nH]c2c(O)ccc([C@@H](O)CNCCOCCCNCCc3cccc(Cl)c3)c2s1` yielded a logD of 0.83.
For `Cn1ccc2c(-c3nc(CS(C)(=O)=O)cc(N4CCOCC4)n3)cccc21`, the logD was 2.
`CC(C)C(NC(=O)Cn1c(-c2cccs2)ncc(N)c1=O)C(=O)C(F)(F)F` (stereo not drawn) showed a logD of 0.68.
With `O=C1NC(=O)c2cc(OCc3ccccc3)ccc21` the logD was 3.1.
For `CCC(NC(=O)c1ccc(C)cc1)c1nc2ccsc2c(=O)n1Cc1ccccc1` (stereo not drawn), the logD was 4.14.
`O=C(O)c1ccc(Nc2ncc(Br)c(Nc3ccccc3)n2)cc1` showed a logD of 1.65.
For `O=c1ccnc2cc(C#Cc3ccccc3)ccn12`, the logD was 2.9.
With `COc1ccccc1OCC(O)CO` (stereo not drawn) [GUAIFENESIN] the logD was 0.24.
Work on `C[C@@H]1CN(C(=O)OCC(F)(F)F)CCN1c1ncc(OCc2ccncc2C#N)cn1` yielded a logD of 3.
In the case of `CN(C)CCNCc1ccc(Nc2ncc3cc(-c4ccncc4)ccc3n2)cc1`, the logD is reported as 1.4.
`O=C(O)c1cccnc1Nc1cccc(C(F)(F)F)c1` [NIFLUMIC ACID] showed a logD of 1.
Work on `Nc1n[nH]cc1-c1cc(C(F)(F)F)ccc1Oc1cc(F)c(S(=O)(=O)Nc2cscn2)cc1Cl` yielded a logD of 2.65.
Work on `N#Cc1cccc(-c2cccc(-c3nn[nH]n3)c2)c1` yielded a logD of 0.7.
With `c1ccc(-c2ccc(COc3ccc4c(c3)CCC(CCN3CCCCC3)C4)cc2)cc1` (stereo not drawn) the logD was 3.3.
With `O=C(NC[C@@H](O)CN1CCC(Oc2ccc(Cl)c(Cl)c2)CC1)c1c[nH]nc1C1CC1` the logD was 3.15.
`CC(C)NC[C@@H](C(=O)N1CCN(c2ncnc3c2[C@H](C)C[C@H]3O)CC1)c1ccc(Cl)cc1` [IPATASERTIB] showed a logD of 1.3.
`CCCCNc1ccc(C(=O)OCCN(C)C)cc1` [TETRACAINE] showed a logD of 2.11.
With `CN1CCOc2cc(COc3ccccc3)cnc21` the logD was 3.3.
`CC[C@H](NC(=O)c1c([S+](C)[O-])c(-c2cccs2)nc2ccccc12)c1ccccc1` (stereo partly drawn) showed a logD of 3.56.
For `c1ccc(-c2ccc3ccccc3n2)cc1` [2-PHENYLQUINOLINE], the logD was 4.
With `Cc1ncc(-c2ccnc(Nc3ccc(C(N)=O)c(F)c3)n2)n1C(C)C` the logD was 2.8.
Compound `COc1cc(N2CCN(C(C)=O)CC2)ccc1Nc1ncc(Cl)c(-c2cnc3cc(C)ccn23)n1` has a logD of 3.3.
For `CN(C)CCOc1ccccc1Cc1ccccc1` [PHENYLTOLOXAMINE], the logD was 2.53.
In the case of `CC(C)(C)OC(=O)N1CCN(c2ncc(OCc3ccc(S(C)(=O)=O)cc3)cn2)CC1`, the logD is reported as 3.27.
Compound `CC(=O)NC1CC(C)N(C(=O)c2ccccc2)c2ccccc21` (stereo not drawn) has a logD of 2.
In the case of `O=C(N[C@@H](Cc1cccc(OCCCNc2ccccn2)c1)C(=O)O)c1c(Cl)cccc1Cl`, the logD is reported as 0.16.
In the case of `c1ccc(C2OC3(CCNCC3)c3ccccc32)cc1` (stereo not drawn), the logD is reported as 0.75.
`CCCSc1ncccc1C(=O)N(C)C1CCOCC1` gave a logD of 1.63.
Compound `CC(C)c1ccc2oc3nc(N)c(C(=O)O)cc3c(=O)c2c1` [AMLEXANOX] has a logD of 1.1.
With `CCN(CC)CC(=O)Nc1c(C#N)cnn1-c1ccccc1` the logD was 0.4.
`O=S(=O)(Nc1cccnc1)c1ccc2c(c1)OCCO2` showed a logD of 1.34.
`O=C(NC1Cc2ccccc2N(CC(CO)CO)C1=O)c1cc2cc(Cl)ccc2[nH]1` (stereo not drawn) gave a logD of 3.64.
For `COc1cc2c(Nc3c(Cl)ccc4c3OCO4)ncnc2cc1OCCCN1CCCC1`, the logD was 1.62.
Compound `CNC(=O)c1ccc(Nc2ncc(F)c(-c3cnc(C)n3C(C)C)n2)cc1` has a logD of 3.
`NC(=O)c1cccc(OC2CCN(Cc3ccccc3)CC2)c1` gave a logD of 1.92.
Compound `CC[C@H](NC(=O)c1c([S+](C)[O-])c(-c2ccccc2)nc2ccccc12)c1cccnc1` (stereo partly drawn) has a logD of 2.2.
For `CN1CCOc2cc(COC3CCCCC3)cnc21`, the logD was 3.1.
`COc1cc(CCc2cc(Nc3ccnc(NCc4ccccn4)n3)[nH]n2)cc(OC)c1` showed a logD of 3.5.
With `COCCC(=O)N[C@@H](C)c1ccc(Nc2ncc3cc(-c4ccncc4)ccc3n2)cc1` the logD was 3.05.
Work on `O=C(Nc1ccccc1)c1cc2ccccc2o1` yielded a logD of 3.44.
`O=C(NCC12CC3CC(CC(C3)C1)C2)c1ccccc1` gave a logD of 4.21.
Work on `Nc1c(C(=O)NC2CC2)nnc2c(-c3ncccn3)cccc12` yielded a logD of 1.5.
`O=C(c1ccc(-c2nc(=O)o[nH]2)cc1)N1CCC(N2CCC(Oc3ccc(Cl)c(Cl)c3)CC2)CC1` showed a logD of 2.24.
`O=C(NCCCN1CCCCC1)C(c1ccccc1)c1ccccc1` gave a logD of 1.33.
Compound `CC(NC(=O)C1(N)CCN(c2ncnc3[nH]ccc23)CC1)c1ccc(S(C)(=O)=O)cc1` (stereo not drawn) has a logD of 1.
Compound `Cc1cc2n[nH]c(=O)n2c2cc(-c3ccncc3)ccc12` has a logD of 2.29.
For `c1cc2c(cc1-c1cnc3n1CCC3)OCCO2`, the logD was 2.33.
